Assay [1] concerns the target T1, TYRO-3 (Homo sapiens, UniProt Q06418).
T1 construct: gene TYRO3
T1 sequence (Q06418 41-890): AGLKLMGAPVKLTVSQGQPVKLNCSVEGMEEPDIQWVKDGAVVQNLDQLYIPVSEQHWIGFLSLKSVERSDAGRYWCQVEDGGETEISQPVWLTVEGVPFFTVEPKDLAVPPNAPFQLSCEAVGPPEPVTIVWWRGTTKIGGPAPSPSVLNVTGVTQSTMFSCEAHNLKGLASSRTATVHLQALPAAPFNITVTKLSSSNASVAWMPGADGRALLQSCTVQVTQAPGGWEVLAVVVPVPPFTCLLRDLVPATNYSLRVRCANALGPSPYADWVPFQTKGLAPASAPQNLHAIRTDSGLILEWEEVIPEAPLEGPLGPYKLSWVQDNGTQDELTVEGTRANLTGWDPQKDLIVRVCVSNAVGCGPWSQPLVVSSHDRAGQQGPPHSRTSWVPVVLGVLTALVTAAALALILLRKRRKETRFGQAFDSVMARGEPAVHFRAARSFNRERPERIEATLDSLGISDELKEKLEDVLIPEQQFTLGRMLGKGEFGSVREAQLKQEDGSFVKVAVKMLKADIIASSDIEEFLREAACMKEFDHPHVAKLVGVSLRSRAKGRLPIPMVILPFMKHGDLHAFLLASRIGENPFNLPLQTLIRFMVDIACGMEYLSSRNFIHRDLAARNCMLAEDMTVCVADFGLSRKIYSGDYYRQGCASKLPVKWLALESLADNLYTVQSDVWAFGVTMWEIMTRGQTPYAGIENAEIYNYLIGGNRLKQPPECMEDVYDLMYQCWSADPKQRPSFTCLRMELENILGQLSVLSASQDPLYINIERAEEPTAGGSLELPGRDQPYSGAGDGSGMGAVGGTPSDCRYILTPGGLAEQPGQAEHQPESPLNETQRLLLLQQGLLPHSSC
As to the kind of experiment: KINOMEscan competition binding (DiscoveRx); enzyme IC50 […] also measured (Reaction Biology).

For assay [2], the target named is T2, AXL (Homo sapiens, UniProt P30530).
T2 sequence (P30530 26-894): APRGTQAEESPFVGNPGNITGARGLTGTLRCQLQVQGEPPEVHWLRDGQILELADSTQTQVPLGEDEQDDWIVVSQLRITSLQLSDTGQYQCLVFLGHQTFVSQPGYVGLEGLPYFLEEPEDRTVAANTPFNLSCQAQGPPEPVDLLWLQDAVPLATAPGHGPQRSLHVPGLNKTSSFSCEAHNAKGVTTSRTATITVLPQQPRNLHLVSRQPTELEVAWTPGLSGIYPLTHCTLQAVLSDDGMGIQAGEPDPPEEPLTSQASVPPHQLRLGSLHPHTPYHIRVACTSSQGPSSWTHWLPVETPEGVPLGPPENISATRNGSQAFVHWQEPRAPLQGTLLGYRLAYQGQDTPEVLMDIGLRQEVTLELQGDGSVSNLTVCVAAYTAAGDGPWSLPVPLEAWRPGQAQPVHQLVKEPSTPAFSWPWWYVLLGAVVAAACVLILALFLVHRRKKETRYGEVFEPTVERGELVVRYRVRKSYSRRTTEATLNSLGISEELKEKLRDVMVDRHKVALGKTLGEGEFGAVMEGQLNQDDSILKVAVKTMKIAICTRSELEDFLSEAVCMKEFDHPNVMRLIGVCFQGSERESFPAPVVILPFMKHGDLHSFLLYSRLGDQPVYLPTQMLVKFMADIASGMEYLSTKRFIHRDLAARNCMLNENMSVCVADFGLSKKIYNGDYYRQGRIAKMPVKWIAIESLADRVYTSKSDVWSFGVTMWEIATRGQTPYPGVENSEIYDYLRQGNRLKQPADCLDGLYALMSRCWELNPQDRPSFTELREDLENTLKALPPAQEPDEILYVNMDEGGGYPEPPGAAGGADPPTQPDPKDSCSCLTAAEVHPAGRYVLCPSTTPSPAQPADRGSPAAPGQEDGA
The assay is described as above.

For the compound `NC(=O)Nc1cc(-c2cccc(F)c2)sc1C(=O)N[C@H]1CCCNC1` [DN10764, (S)-5-(3-fluorophenyl)-N-(piperidin-3-yl)-3-ureidothiophene-2-carboxamide], the values for the Kd in assay [1] and in assay [2] were 1050 nM and 26 nM, respectively.
